Data as given in patent publication US8604216B2, “Desferrithiocin derivatives and methods of use thereof” (University of Florida Research Foundation, Inc., priority 2003, dated 2013).

Assays:
[1] = test system: iron-overloaded Cebus apella monkeys; assay: Iron clearance in iron-overloaded Cebus apella monkeys; format: in vivo; conditions: oral
Method: (S)-2-(4′,5′-dimethoxyphenyl)-4-methylthiazoline-4-carboxylic acid (2) was administered to iron-overloaded Cebus apella monkeys. The protocol can be found in Bergeron, R. J. et al., “Methoxylatoin of Desazadesferrithiocin Analogues: Enhanced Iron Clearing Efficiency,” J Med Chem. 46:1470-1477 (2003), the contents of which are incorporated herein by reference. Briefly, the monkeys were iron overloaded with iron dextran administered intravenously to result in an iron loading of about 500 mg per kg of body weight. At least 20 half-lives, 60 days, elapsed before the animals were used in experiments evaluating iron chelators. The iron chelator was solubilized in 40% Cremophor RH-40/water (v/v) and were administered orally to the monkeys. Fecal and urine samples were collected at 24 hour intervals beginning 4 days prior to the administration of an iron chelator and continued for 5 days after the chelator was administered. Iron concentrations in stool and urine were determined by flame atomic absorption spectroscopy. Iron chelator efficiency was calculated by dividing the net iron clearance [total iron excretion (stool plus urine) minus background] by the theoretical iron clearance and multiplying by 100. The theoretical clearance of the iron chelator was generated on the basis of a 2:1 ligand/iron complex. At a dose of 114.2 μmol/kg, the efficiency of 2 was calculated to be 14.8±2.9%. […] Approximately 20% of the iron was excreted in the urine, while the majority (approximately 80%) was eliminated in the feces. In a separate experiment, 2 was administered to iron overloaded Cebus apella at a dose of 150 μmol/kg. In this experiment, the iron clearing efficiency was calculated to be 16.1±4.1%. This efficiency was within error of the lower dose of 2 […].

[2] = test system: non-iron overloaded, fasted rats; assay: Iron clearance in bile duct-cannulated rats; format: in vivo; conditions: male Sprague-Dawley rats
Method: (S)-2-(4′,5′-dimethoxyphenyl)-4-thiazoline-4-carboxylic acid (1) was administered to non-iron overloaded, fasted rats that had been subjected to routine bile duct cannulation. Briefly, male Sprague-Dawley rats averaging 450 g were housed in Nalgene plastic metabolic cages during the experimental period and given free access to water. The animals were anesthetized using sodium pentobarbital (55 mg/kg) administered intraperitoneally. The bile duct was cannulated using 22-gauge polyethylene tubing. The cannula was inserted into the duct about 1 cm from the duodenum and tied snugly in place. After threading through the shoulder, the cannula was passed from the rat to the swivel inside a metal torque-transmitting tether, which was attached to a rodent jacket around the animal's chest. The cannula was directed from the rat to a Gilson microfraction collector (Middleton, Wis.) by a fluid swivel mounted above the metabolic cage. Bile samples were collected at 3 hour intervals for 24 hours. The urine sample was taken at 24 hours and handling was as previously described in Bergeron, R. J., et al., J Med Chem. 34:2072-2078 (1991), the contents of which are incorporated herein by reference.

| Structure (SMILES) | share of iron eliminated in the feces ([1]; 114.2 μmol/kg) | share of iron excreted in the urine ([1]; 114.2 μmol/kg) | iron clearing efficiency ([1]; 114.2 μmol/kg, in 40% Cremophor RH-40/water, stool plus urine iron minus background vs theoretical 2:1 ligand/iron complex) | iron clearing efficiency ([1]; 150 μmol/kg, separate experiment) | tolerability [2] | efficiency of iron excretion ([2]; bile collected for 24 hours, urine at 24 hours) |
| --- | --- | --- | --- | --- | --- | --- |
| COc1ccc(C2=N[C@@](C)(C(=O)O)CS2)cc1OC [Compound 2, (S)-2-(4′,5′-dimethoxyphenyl)-4-methylthiazoline-4-carboxylic acid] | approximately 80% | Approximately 20% | 14.8±2.9% | 16.1±4.1% |  |  |
| COc1ccc([C@H]2NC(C(=O)O)=CS2)cc1OC [Compound 1, (S)-2-(4′,5′-dimethoxyphenyl)-4-thiazoline-4-carboxylic acid] |  |  |  |  | tolerated the drug well | less than 0.5% |
